Measured values taken from ChEMBL document CHEMBL3407491, “Synthesis, characterization and in vitro photodynamic antimicrobial activity of basic amino acid-porphyrin conjugates” (Eur J Med Chem, 2015).
Values after ≈ are worked out from the molar mass of the structure shown. Active and inactive are the calls of the source. No cut-off for these calls is given here.

How the values were obtained:
Staphylococcus aureus [1] = experiment: Antibacterial activity against methicillin-resistant Staphylococcus aureus incubated in dark for 30 mins followed by exposure to light fluences at 650 nm and 6 J/cm2 and then incubated overnight measured after 24 hrs; format: functional; settings: light or radiation study
Staphylococcus aureus [2] = experiment: Antibacterial activity against methicillin-resistant Staphylococcus aureus incubated in dark for 30 mins and grown for 24 hrs followed by further incubation on LB agar plates for another 24 hrs; format: functional
Staphylococcus aureus [3] = experiment: Antibacterial activity against methicillin-resistant Staphylococcus aureus incubated in dark for 30 mins measured after 24 hrs; format: functional
Escherichia coli [4] = experiment: Antibacterial activity against Escherichia coli ATCC 25922 incubated in dark for 30 mins and grown for 24 hrs followed by further incubation on LB agar plates for another 24 hrs; format: functional
Pseudomonas aeruginosa [5] = experiment: Antibacterial activity against Pseudomonas aeruginosa ATCC 27853 incubated in dark for 30 mins measured after 24 hrs; format: functional
Staphylococcus aureus [6] = experiment: Bactericidal activity against methicillin-resistant Staphylococcus aureus incubated in dark for 30 mins followed by exposure to light fluences at 650 nm and 6 J/cm2 and then incubated overnight followed by further incubation on LB agar plates for another 24 hrs; format: functional; settings: light or radiation study
Pseudomonas aeruginosa [7] = experiment: Antibacterial activity against Pseudomonas aeruginosa ATCC 27853 incubated in dark for 30 mins followed by exposure to light fluences at 650 nm and 6 J/cm2 and then incubated overnight measured after 24 hrs; format: functional; settings: ATCC 27853, light or radiation study
Escherichia coli [8] = experiment: Antibacterial activity against Escherichia coli ATCC 25922 incubated in dark for 30 mins measured after 24 hrs; format: functional
Escherichia coli [9] = experiment: Bactericidal activity against Escherichia coli ATCC 25922 incubated in dark for 30 mins followed by exposure to light fluences at 650 nm and 6 J/cm2 and then incubated overnight followed by further incubation on LB agar plates for another 24 hrs; format: functional; settings: ATCC 25922, light or radiation study
Escherichia coli [10] = experiment: Antibacterial activity against Escherichia coli ATCC 25922 incubated in dark for 30 mins followed by exposure to light fluences at 650 nm and 6 J/cm2 and then incubated overnight measured after 24 hrs; format: functional; settings: ATCC 25922, light or radiation study
Pseudomonas aeruginosa [11] = experiment: Bactericidal activity against Pseudomonas aeruginosa ATCC 27853 incubated in dark for 30 mins followed by exposure to light fluences at 650 nm and 6 J/cm2 and then incubated overnight followed by further incubation on LB agar plates for another 24 hrs; format: functional; settings: ATCC 27853, light or radiation study
Pseudomonas aeruginosa [12] = experiment: Antibacterial activity against Pseudomonas aeruginosa ATCC 27853 incubated in dark for 30 mins and grown for 24 hrs followed by further incubation on LB agar plates for another 24 hrs; format: functional
Escherichia coli [13] = experiment: Antibacterial activity against Escherichia coli ATCC 25922 at 3.91 uM to 62.50 uM incubated in dark for 30 mins followed by exposure to light fluences at 650 nm and 6 J/cm2 and then incubated overnight measured after 24 hrs; format: functional, organism-based
Escherichia coli [14] = experiment: Antibacterial activity against Escherichia coli ATCC 25922 at 0.49 uM to 7.8 uM incubated in dark for 30 mins followed by exposure to light fluences at 650 nm and 6 J/cm2 and then incubated overnight measured after 24 hrs; format: functional, organism-based
Pseudomonas aeruginosa [15] = experiment: Antibacterial activity against Pseudomonas aeruginosa ATCC 27853 at 0.49 uM to 7.8 uM incubated in dark for 30 mins followed by exposure to light fluences at 650 nm and 6 J/cm2 and then incubated overnight measured after 24 hrs; format: functional, organism-based
[16] = Photostability at 2 x 10^-5 mol/L exposed to 4.2 mW/cm2 light energy density assessed as change in absorption spectra after 30 mins post irradiation; format: physicochemical; settings: 0.5 h, 20 µM
[17] = Octanol water partition coefficient, log P of the compound by reverse-phase thin-layer chromatography; format: physicochemical
[18] = Singlet oxygen generation of the compound exposed to 4.2 mW/cm2 light energy density assessed as singlet oxygen quantum yield measured at 410 nm in 10 seconds intervals of irradiation at 0.2 uM by DPBF scavenger based assay
Staphylococcus aureus [19] = experiment: Antibacterial activity against methicillin-resistant Staphylococcus aureus at 0.49 uM to 7.8 uM incubated in dark for 30 mins followed by exposure to light fluences at 650 nm and 6 J/cm2 and then incubated overnight measured after 24 hrs; format: functional, organism-based
Pseudomonas aeruginosa [20] = experiment: Antibacterial activity against Pseudomonas aeruginosa ATCC 27853 at 3.91 uM to 62.50 uM incubated in dark for 30 mins followed by exposure to light fluences at 650 nm and 6 J/cm2 and then incubated overnight measured after 24 hrs; format: functional, organism-based

Compound | MIC (Staphylococcus aureus [1]) [µM] | MBC (Staphylococcus aureus [2]) [µM] | MIC (Staphylococcus aureus [3]) [µM] | MBC (Escherichia coli [4]) [µM] | MIC (Pseudomonas aeruginosa [5]) [µM] | MBC (Staphylococcus aureus [6]) [µM] | MIC (Pseudomonas aeruginosa [7]) [µM] | MIC (Escherichia coli [8]) [µM] | MBC (Escherichia coli [9]) [µM] | MIC (Escherichia coli [10]) [µM] | MBC (Pseudomonas aeruginosa [11]) [µM] | MBC (Pseudomonas aeruginosa [12]) [µM] | Activity (Escherichia coli [13]) | Activity (Escherichia coli [14]) | Activity (Pseudomonas aeruginosa [15]) | Activity [16] [%] | logP [17] | Activity [18] | Activity (Staphylococcus aureus [19]) | Activity (Pseudomonas aeruginosa [20])
Nc1ccc(-c2c3nc(c(-c4ccc(N)cc4)c4ccc([nH]4)c(-c4ccc(N)cc4)c4nc(c(-c5ccc(N)cc5)c5ccc2[nH]5)C=C4)C=C3)cc1 | 62.5 (≈ 42.2 µg/mL) | 500 (≈ 337 µg/mL) | 125 (≈ 84.4 µg/mL) | 250 (≈ 169 µg/mL) | 125 (≈ 84.4 µg/mL) | 125 (≈ 84.4 µg/mL) | 125 (≈ 84.4 µg/mL) | 125 (≈ 84.4 µg/mL) | 250 (≈ 169 µg/mL) | 125 (≈ 84.4 µg/mL) | 250 (≈ 169 µg/mL) | 250 (≈ 169 µg/mL) | – | – | – | – | – | – | – | –
N=C(N)NCCC[C@H](N)C(=O)Nc1ccc(-c2c3nc(c(-c4ccc(N)cc4)c4ccc([nH]4)c(-c4ccc(N)cc4)c4nc(c(-c5ccc(N)cc5)c5ccc2[nH]5)C=C4)C=C3)cc1 | 62.5 (≈ 51.9 µg/mL) | 500 (≈ 416 µg/mL) | 62.5 (≈ 51.9 µg/mL) | 125 (≈ 104 µg/mL) | 62.5 (≈ 51.9 µg/mL) | 500 (≈ 416 µg/mL) | 62.5 (≈ 51.9 µg/mL) | 62.5 (≈ 51.9 µg/mL) | 125 (≈ 104 µg/mL) | 62.5 (≈ 51.9 µg/mL) | 250 (≈ 208 µg/mL) | 250 (≈ 208 µg/mL) | inactive | inactive | inactive | < 20 | 1.25 | 0.47 | inactive | inactive
Nc1ccc(-c2c3nc(c(-c4ccccc4)c4ccc([nH]4)c(-c4ccccc4)c4nc(c(-c5ccccc5)c5ccc2[nH]5)C=C4)C=C3)cc1 | 125 (≈ 78.7 µg/mL) | 500 (≈ 315 µg/mL) | 125 (≈ 78.7 µg/mL) | 500 (≈ 315 µg/mL) | 125 (≈ 78.7 µg/mL) | 500 (≈ 315 µg/mL) | 62.5 (≈ 39.4 µg/mL) | 125 (≈ 78.7 µg/mL) | 125 (≈ 78.7 µg/mL) | 62.5 (≈ 39.4 µg/mL) | 125 (≈ 78.7 µg/mL) | 250 (≈ 157 µg/mL) | inactive | inactive | inactive | < 20 | – | – | inactive | inactive
NCCCC[C@H](N)C(=O)Nc1ccc(-c2c3nc(c(-c4ccc(N)cc4)c4ccc([nH]4)c(-c4ccccc4)c4nc(c(-c5ccccc5)c5ccc2[nH]5)C=C4)C=C3)cc1 | 62.5 (≈ 48.3 µg/mL) | 250 (≈ 193 µg/mL) | 125 (≈ 96.6 µg/mL) | 125 (≈ 96.6 µg/mL) | 125 (≈ 96.6 µg/mL) | 125 (≈ 96.6 µg/mL) | 62.5 (≈ 48.3 µg/mL) | 62.5 (≈ 48.3 µg/mL) | 125 (≈ 96.6 µg/mL) | 62.5 (≈ 48.3 µg/mL) | 125 (≈ 96.6 µg/mL) | 250 (≈ 193 µg/mL) | – | – | – | < 20 | 1.47 | 0.24 | – | –
Nc1ccc(-c2c3nc(c(-c4ccc(N)cc4)c4ccc([nH]4)c(-c4ccccc4)c4nc(c(-c5ccccc5)c5ccc2[nH]5)C=C4)C=C3)cc1 | 125 (≈ 80.6 µg/mL) | 500 (≈ 322 µg/mL) | 125 (≈ 80.6 µg/mL) | 250 (≈ 161 µg/mL) | 125 (≈ 80.6 µg/mL) | 250 (≈ 161 µg/mL) | 62.5 (≈ 40.3 µg/mL) | 125 (≈ 80.6 µg/mL) | 125 (≈ 80.6 µg/mL) | 62.5 (≈ 40.3 µg/mL) | 125 (≈ 80.6 µg/mL) | 250 (≈ 161 µg/mL) | inactive | inactive | inactive | < 20 | – | – | inactive | inactive
N[C@@H](Cc1c[nH]cn1)C(=O)Nc1ccc(-c2c3nc(c(-c4ccccc4)c4ccc([nH]4)c(-c4ccccc4)c4nc(c(-c5ccccc5)c5ccc2[nH]5)C=C4)C=C3)cc1 | 125 (≈ 95.9 µg/mL) | 500 (≈ 383 µg/mL) | 125 (≈ 95.9 µg/mL) | 250 (≈ 192 µg/mL) | 125 (≈ 95.9 µg/mL) | 250 (≈ 192 µg/mL) | 62.5 (≈ 47.9 µg/mL) | 125 (≈ 95.9 µg/mL) | 125 (≈ 95.9 µg/mL) | 62.5 (≈ 47.9 µg/mL) | 125 (≈ 95.9 µg/mL) | 250 (≈ 192 µg/mL) | inactive | inactive | inactive | < 20 | 1.6 | 0.56 | inactive | inactive
NCCCC[C@H](N)C(=O)Nc1ccc(-c2c3nc(c(-c4ccc(N)cc4)c4ccc([nH]4)c(-c4ccc(N)cc4)c4nc(c(-c5ccc(N)cc5)c5ccc2[nH]5)C=C4)C=C3)cc1 | 250 (≈ 201 µg/mL) | > 500 | 250 (≈ 201 µg/mL) | 500 (≈ 401 µg/mL) | 250 (≈ 201 µg/mL) | 500 (≈ 401 µg/mL) | 500 (≈ 401 µg/mL) | 250 (≈ 201 µg/mL) | 500 (≈ 401 µg/mL) | 250 (≈ 201 µg/mL) | > 500 | > 500 | – | – | – | < 20 | 1.4 | 0.17 | – | –
NCCCC[C@H](N)C(=O)Nc1ccc(-c2c3nc(c(-c4ccccc4)c4ccc([nH]4)c(-c4ccc(N)cc4)c4nc(c(-c5ccccc5)c5ccc2[nH]5)C=C4)C=C3)cc1 | 62.5 (≈ 48.3 µg/mL) | 250 (≈ 193 µg/mL) | 125 (≈ 96.6 µg/mL) | 125 (≈ 96.6 µg/mL) | 125 (≈ 96.6 µg/mL) | 250 (≈ 193 µg/mL) | 62.5 (≈ 48.3 µg/mL) | 62.5 (≈ 48.3 µg/mL) | 125 (≈ 96.6 µg/mL) | 62.5 (≈ 48.3 µg/mL) | 125 (≈ 96.6 µg/mL) | 250 (≈ 193 µg/mL) | – | – | – | < 20 | 1.46 | 0.27 | – | –
Nc1ccc(-c2c3nc(c(-c4ccccc4)c4ccc([nH]4)c(-c4ccc(N)cc4)c4nc(c(-c5ccccc5)c5ccc2[nH]5)C=C4)C=C3)cc1 | 62.5 (≈ 40.3 µg/mL) | 125 (≈ 80.6 µg/mL) | 62.5 (≈ 40.3 µg/mL) | > 500 | 125 (≈ 80.6 µg/mL) | 125 (≈ 80.6 µg/mL) | 125 (≈ 80.6 µg/mL) | > 500 | 500 (≈ 322 µg/mL) | 125 (≈ 80.6 µg/mL) | 250 (≈ 161 µg/mL) | 250 (≈ 161 µg/mL) | inactive | inactive | inactive | < 20 | – | – | inactive | inactive
C1=Cc2nc1c(-c1ccccc1)c1ccc([nH]1)c(-c1ccccc1)c1nc(c(-c3ccccc3)c3ccc([nH]3)c2-c2ccccc2)C=C1 | – | – | – | – | – | – | – | – | – | – | – | – | – | – | – | – | – | 0.64 | – | –
